# Patent US20240360151A1 (SANOFI, priority 2023, published 2024)
# Assays:
# NLRP3 inflammasome = molecular target: T1, NLRP3 inflammasome (Homo sapiens, UniProt Q96P20); assay: IL-1β secretion assay (NLRP3 IC50) in LPS-primed, nigericin-activated THP-1 cells, HTRF; format: cell-based; settings: monocytic THP-1 cells; LPS 10 ng/mL 3 h priming, then compound + nigericin 10 μM 2 h; relative IC50, 10 concentrations, geometric mean
# T1 construct: endogenous in cells; host or cells: THP-1 monocytic cells
# Method in brief: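 IL-1β in supernatant read by HTRF after 2 h co-incubation of compound (0.1% DMSO, 10 concentrations, 1:3 series) with nigericin at 10 μM final, following 3 h LPS (10 ng/mL) priming of THP-1 monocytes at 37° C. Inhibition normalised to unactivated and no-compound controls; geometric-mean relative IC50 from 4-parameter logistic model.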
# [1] = tested on: NF-kB pathway (TNF-α secretion by THP-1 cells); assay: TNF-α secretion assay in LPS-stimulated THP-1 cells, Lumit immunoassay; format: cell-based, human; settings: Homo sapiens, THP-1, 3 h, monocytic THP-1 cells, LPS 10 ng/mL, relative IC50, 10 concentrations, geometric mean
# Method: Monocytic THP-1 cells were maintained in RPMI 1640 media (Gibco 21875)+10% FBS, (Gibco 10500)+1% penicillin/streptomycin (Gibco 15140-122). Cells were then plated at 40,000 cells per well in 384-well cell culture plates (Corning 3542) and maintained with RPMI1640 (Gibco 11835)+5% FBS, (Gibco 10500). Experimental compounds were prepared and added as described above. TNF-α secretion was triggered by the addition of 10 ng/mL LPS (invivoGen, tlrl-3pelps) and cells were incubated for 3 hours. TNF-α levels were monitored directly in the cells plate using an Lumit assay (Lumit TNFa-Human Immunoassay—Promega W6051) according to manufacturers' instructions.
# Data were expressed as percentage of inhibition (I %) as compared to a maximum signal control containing no small molecule (I %=0%) according to the formula: 1%=(1−((Sample−Min))/((Max−Min)))×100, where: • Sample: Signal obtained in the presence of each compound tested, • Max: Maximum signal in the absence of compound added, • Min: Minimum or background signal obtained in the absence of activation signal.
# Relative IC50 (IC50 rel) were obtained from a dose response curve with 10 concentrations. Final IC50 rels are expressed as the geometric mean.
# Relative IC50 values were estimated with Biost@t-SPEED v2.4 internal software based on SAS system using the 4-parameter logistic model according to Ratkovsky and Reedy (D. A. Ratkovsky, T. J. Reedy, Choosing near-linear parameters in the four parameters logistic model radioligands and related assays. Biometrics, 42 (1986), 575-582): Y=A+C/((1+exp(−B*(log(X)−M)))), where: • A: Lower asymptote (BOTTOM), • A+C: Upper asymptote (TOP), • M: the logarithm of the concentration estimated at the inflexion point (the logarithm of the relative IC50), • B: Slope at the inflexion point of the curve.
# T1 sequence (Q96P20 whole entry): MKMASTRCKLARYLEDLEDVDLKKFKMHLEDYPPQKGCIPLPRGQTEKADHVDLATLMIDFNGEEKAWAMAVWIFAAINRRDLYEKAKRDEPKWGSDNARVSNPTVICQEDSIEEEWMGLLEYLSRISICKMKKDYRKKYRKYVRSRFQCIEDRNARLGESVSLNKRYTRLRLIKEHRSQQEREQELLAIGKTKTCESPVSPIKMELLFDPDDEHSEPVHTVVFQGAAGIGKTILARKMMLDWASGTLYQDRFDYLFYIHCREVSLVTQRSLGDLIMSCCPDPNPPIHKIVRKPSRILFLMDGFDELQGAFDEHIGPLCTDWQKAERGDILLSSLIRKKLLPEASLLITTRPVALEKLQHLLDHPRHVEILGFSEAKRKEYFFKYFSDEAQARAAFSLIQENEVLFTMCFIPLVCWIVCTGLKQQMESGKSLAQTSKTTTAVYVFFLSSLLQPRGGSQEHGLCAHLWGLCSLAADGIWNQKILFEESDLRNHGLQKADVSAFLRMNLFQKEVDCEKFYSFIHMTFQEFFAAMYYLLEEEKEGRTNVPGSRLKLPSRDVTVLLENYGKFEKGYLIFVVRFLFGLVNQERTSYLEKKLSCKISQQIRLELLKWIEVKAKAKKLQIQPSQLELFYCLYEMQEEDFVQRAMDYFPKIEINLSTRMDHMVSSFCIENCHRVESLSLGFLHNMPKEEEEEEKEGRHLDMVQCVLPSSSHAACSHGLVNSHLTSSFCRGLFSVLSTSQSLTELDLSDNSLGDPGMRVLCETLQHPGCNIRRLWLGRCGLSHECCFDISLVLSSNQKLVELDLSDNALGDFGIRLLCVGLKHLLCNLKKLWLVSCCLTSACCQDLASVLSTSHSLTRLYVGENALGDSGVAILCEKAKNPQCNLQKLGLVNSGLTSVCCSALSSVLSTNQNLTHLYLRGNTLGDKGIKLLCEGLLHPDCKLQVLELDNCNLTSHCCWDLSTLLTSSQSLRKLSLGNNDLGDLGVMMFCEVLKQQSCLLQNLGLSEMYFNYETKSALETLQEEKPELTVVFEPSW
Compound,IC50 (NLRP3 inflammasome) [nM],IC50 [1] [µM]
"Cc1cc(C)c(-c2ccc(N3CCO[C@@H]4CCN(C5CCC5)C[C@@H]43)nn2)c(O)c1 (single isomer, unassigned) [Example 11]",3,> 10
"Cc1cc(C(F)(F)F)cc(O)c1-c1ccc(N2CC[C@H](CO)C2)nn1 [Example 20, 2-[6-[(3S)-3-(hydroxymethyl)pyrrolidin-1-yl]pyridazin-3-yl]-3-methyl-5-(trifluoromethyl)phenol]",44,> 10
"CC(=O)N1CC[C@H]2OCCN(c3cc(C)c(-c4ccc(C(F)(F)F)cc4O)nn3)[C@H]2C1 [Example 363, 1-[(4aS,8aR)-4-[6-[2-hydroxy-4-(trifluoromethyl)phenyl]-5-methyl-pyridazin-3-yl]-3,4a,5,7,8,8a-hexahydro-2H-pyrido[4,3-b][1,4]oxazin-6-yl]ethanone]",16,> 10
"Cc1cc(C)c(-c2ccc(N3CCO[C@H]4CCN(C5CCC5)C[C@H]43)nn2)c(O)c1 (single isomer, unassigned) [Example 10]",178,> 10
"Oc1cc(Cl)cc(Cl)c1-c1ccc(N2CCC3(CC2)COC3)nn1 [Example 66, 3,5-dichloro-2-[6-(2-oxa-7-azaspiro[3.5]nonan-7-yl)pyridazin-3-yl]phenol]",304,> 10
"Cc1cc(C)c(-c2ccc(N3CCC(O)CC3)nn2)c(O)c1 [Example 1, 1-[6-(2-hydroxy-4,6-dimethyl-phenyl)pyridazin-3-yl]piperidin-4-ol]",407,> 10
"NC1(C2CCCN(c3ccc(-c4c(O)cc(Cl)cc4Cl)nn3)C2)CC1 (stereo not shown) [Example 17, 2-[6-[3-(1-aminocyclopropyl)-1-piperidyl]pyridazin-3-yl]-3,5-dichloro-phenol]",473,> 10
"Cc1cc(C(F)(F)F)cc(O)c1-c1ccc(N2CC[C@H]3CCN(C)C[C@H]32)nn1 [Example 391, 2-[6-[(3aR,7aS)-6-methyl-3,3a,4,5,7,7a-hexahydro-2H-pyrrolo[2,3-c]pyridin-1-yl]pyridazin-3-yl]-3-methyl-5-(trifluoromethyl)phenol]",31,> 10
"Cc1cc(C(F)(F)F)cc(O)c1-c1ccc(N2C[C@H](CO)O[C@@H](CO)C2)nn1 [Example 200, 2-[6-[(2R,6R)-2,6-bis(hydroxymethyl)morpholin-4-yl]pyridazin-3-yl]-3-methyl-5-(trifluoromethyl)phenol]",23,> 10
"CCc1cccc(O)c1-c1ccc(N2CCO[C@@H]3CCN(CC)C[C@@H]32)nn1 [Example 408, 2-[6-[(4aS,8aR)-6-ethyl-3,4a,5,7,8,8a-hexahydro-2H-pyrido[4,3-b][1,4]oxazin-4-yl]pyridazin-3-yl]-3-ethyl-phenol]",2,> 10
"Cc1cccc(O)c1-c1ccc(N2CCO[C@H]3CCN(C)C[C@H]32)nn1 [Example 299, 2-[6-[(4aR,8aS)-6-methyl-3,4a,5,7,8,8a-hexahydro-2H-pyrido[4,3-b][1,4]oxazin-4-yl]pyridazin-3-yl]-3-methyl-phenol]",15,> 10
"COc1ccc(-c2nnc(N3CCO[C@H](CO)C3)cc2C)c(O)c1 [Example 116, 2-[6-[(2S)-2-(hydroxymethyl)morpholin-4-yl]-4-methyl-pyridazin-3-yl]-5-methoxy-phenol]",454,> 10
"Cc1cc(O)c(-c2nnc(N3CCO[C@H](CO)C3)cc2C)c(Cl)c1 [Example 177, 3-chloro-2-[6-[(2S)-2-(hydroxymethyl)morpholin-4-yl]-4-methyl-pyridazin-3-yl]-5-methyl-phenol]",91,7.38
"Cc1cc(C)c(-c2ccc(N3CC[C@@H]4CCN(C)C[C@@H]43)nn2)c(O)c1 (single isomer, unassigned) [Example 384]",0.4,> 10
"CN1CC2(CCN(c3ccc(-c4c(O)cc(Cl)cc4Cl)nn3)CC2)C1 [Example 55, 3,5-dichloro-2-[6-(2-methyl-2,7-diazaspiro[3.5]nonan-7-yl)pyridazin-3-yl]phenol]",176,> 10
"CCc1cc(N2CCO[C@H](CO)C2)nnc1-c1ccc(C)cc1O [Example 72, 2-[4-ethyl-6-[(2S)-2-(hydroxymethyl)morpholin-4-yl]pyridazin-3-yl]-5-methyl-phenol]",107,> 10
"OC[C@@H]1CN(c2cc(C(F)F)c(-c3ccc(C(F)(F)F)cc3O)nn2)CCO1 [Example 247, 2-[4-(difluoromethyl)-6-[(2S)-2-(hydroxymethyl)morpholin-4-yl]pyridazin-3-yl]-5-(trifluoromethyl)phenol]",168,> 10
"CCc1cc(C)cc(O)c1-c1ccc(N2CCO[C@H](CO)C2)nn1 [Example 246, 3-ethyl-2-[6-[(2S)-2-(hydroxymethyl)morpholin-4-yl]pyridazin-3-yl]-5-methylphenol]",12,> 10
"CCN1CC[C@H]2CCN(c3ccc(-c4c(C)cc(C(F)(F)F)cc4O)nn3)[C@H]2C1 (single isomer, unassigned) [Example 429]",< 0.36,> 10
"Cc1cc(C(F)(F)F)cc(O)c1-c1ccc(N2C[C@@H](CO)O[C@H](CO)C2)nn1 [Example 199, 2-[6-[(2S,6S)-2,6-bis(hydroxymethyl)morpholin-4-yl]pyridazin-3-yl]-3-methyl-5-(trifluoromethyl)phenol]",4,> 10
"CCN1CC[C@H]2CCN(c3ccc(-c4c(C)cc(C(F)(F)F)cc4O)nn3)[C@H]2C1 (racemic) [Example 378, 2-[6-[rac-(3aS,7aR)-6-ethyl-3,3a,4,5,7,7a-hexahydro-2H-pyrrolo[2,3-c]pyridin-1-yl]pyridazin-3-yl]-3-methyl-5-(trifluoromethyl)phenol]",1,> 10
"Oc1cc(Cl)cc(Cl)c1-c1ccc(N2CCSCC2)nn1 [Example 203, 3,5-dichloro-2-(6-thiomorpholinopyridazin-3-yl)phenol]",332,9.99
"COC[C@@H]1CN(c2ccc(-c3c(O)cc(Cl)cc3Cl)nn2)CCO1 [Example 35, 3,5-dichloro-2-[6-[(2S)-2-(methoxymethyl)morpholin-4-yl]pyridazin-3-yl]phenol]",501,> 10
"O=C1NCCCN1c1ccc(-c2c(O)cc(Cl)cc2Cl)nn1 [Example 239, 1-[6-(2,4-dichloro-6-hydroxy-phenyl)pyridazin-3-yl]hexahydropyrimidin-2-one]",200,> 10
"Cc1cc(C(F)(F)F)cc(O)c1-c1ccc(N2CC(CO)C2)nn1 [Example 30, 2-[6-[3-(hydroxymethyl)azetidin-1-yl]pyridazin-3-yl]-3-methyl-5-(trifluoromethyl)phenol]",431,> 10
"Cc1cc(C)c(-c2ccc(N3CCOC[C@@H]3CO)nn2)c(O)c1 [Example 6, 2-[6-[(3S)-3-(hydroxymethyl)morpholin-4-yl]pyridazin-3-yl]-3,5-dimethyl-phenol]",235,> 10
"CCc1cccc(O)c1-c1cc(C(F)F)c(N2CCO[C@@H]3CCN(C)C[C@@H]32)nn1 [Example 425, 2-[6-[(4aS,8aR)-6-methyl-3,4a,5,7,8,8a-hexahydro-2H-pyrido[4,3-b][1,4]oxazin-4-yl]-5-(difluoromethyl)pyridazin-3-yl]-3-ethyl-phenol]",55,> 10
"CC(=O)N1CC[C@H]2OCCN(c3ccc(-c4c(C)cc(C(F)(F)F)cc4O)nn3)[C@H]2C1 (racemic) [Example 214, 1-[rac-(4aS,8aR)-4-[6-[2-hydroxy-6-methyl-4-(trifluoromethyl)phenyl]pyridazin-3-yl]-3,4a,5,7,8,8a-hexahydro-2H-pyrido[4,3-b][1,4]oxazin-6-yl]ethanone]",36,> 10
"CC(=O)N1CC[C@@H]2OCCN(c3ccc(-c4c(C)cc(C)cc4O)nn3)[C@@H]2C1 (racemic) [Example 213, 1-[rac-(4aR,8aS)-4-[6-(2-hydroxy-4,6-dimethyl-phenyl)pyridazin-3-yl]-3,4a,5,7,8,8a-hexahydro-2H-pyrido[4,3-b][1,4]oxazin-6-yl]ethanone]",115,> 10
